The structures appear in SMILES notation.

Experimental findings from patent US20230085307A1, “PYRIDAZINONE COMPOUND AND HERBICIDE” (NISSAN CHEMICAL CORPORATION, priority 2019, published 2023) are described below.

The test system of the first test is rice flat sedge. The test can be described thus: Test Example 3: herbicidal effect by foliage application, Wagner pot (Table 18, symbol E). It counts as in vivo, rice flat sedge (Cyperus iria). To be noted: 320 g/ha. In outline: (§1)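 Plants were sown in alluvial soil held under 0.1–0.5 cm standing water and grown 14 days in a greenhouse at 25–30 °C. An emulsifiable formulation, water-diluted to the set dose, was then sprayed onto the foliage, and effects were scored three weeks later using previously defined criteria.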
For `CON=C(C)c1ccc(-c2sc3ccc(F)cc3c2-c2c(O)c(C)nn(C)c2=O)cc1` [2-079], the “herbicidal effect on E (rice flat sedge), rating 0-5” value was 5 (Herbicidal rate of 90% or more (almost completely withered)).

A further test deals with barnyard grass. Briefly: Test Example 5: herbicidal effect by foliage application, plastic box (Table 20, symbol H). It counts as in vivo, barnyard grass (Echinochloa crus-galli). To be noted: foliage application, 320 g/ha, evaluated three weeks after application. In outline:
(§2)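 Plants sown in sterilized diluvial soil and grown 14 days in a greenhouse at 25° C to 30° C, then sprayed on the foliage with the compound's emulsion diluted in water to a predetermined herbicide amount. Injury to weeds and crops scored three weeks after application on a visual rating scale.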
`CON=C(C)c1ccc(-c2sc3ccc(F)cc3c2-c2c(O)c(C)nn(C)c2=O)cc1` [2-079]: the “herbicidal effect on H: barnyard grass” value is reported as 5 (Herbicidal rate of 90% or more (almost completely withered)).

Another test concerns Chinese sprangletop. The test can be described thus: Test Example 3: herbicidal effect by foliage application, Wagner pot (Table 18, symbol D). It counts as in vivo, chinese sprangletop (Leptochloa chinensis). To be noted: 320 g/ha. An outline of the steps: as §1
With `CON=C(C)c1ccc(-c2sc3ccc(F)cc3c2-c2c(O)c(C)nn(C)c2=O)cc1` [2-079], the “herbicidal effect on D (Chinese sprangletop), rating 0-5” value was 4 (Herbicidal rate of 70% or more and less than 90%).

The next test relates to oval-leafed pondweed. Briefly: Test Example 1: herbicidal activity, application before weed generation under submerged conditions (Table 16, symbol C). It counts as in vivo, oval-leafed pondweed (Monochoria vaginalis). To be noted: 320 g/ha applied herbicide. In outline:
(§3)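 Submerged Wagner pots (alluvial soil, 4 cm water) sown with weed seeds and planted with 2.5-leaf rice seedlings; emulsifiable concentrate diluted in water applied to water surface on sowing day. Held in greenhouse at 25-30 °C; injury scored 0-5 by herbicidal rate after three weeks.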
For `CON=C(C)c1ccc(-c2sc3ccc(F)cc3c2-c2c(O)c(C)nn(C)c2=O)cc1` [2-079], the “Herbicidal effect on C: oval-leafed pondweed (grade 0-5)” value was 1 (Herbicidal rate of 5% or more and less than 20%).

A further test concerns redroot pigweed. The test can be described thus: Test Example 5: herbicidal effect by foliage application, plastic box (Table 20, symbol N). It counts as in vivo, redroot pigweed (Amaranthus retroflexus). The settings on record: foliage application, 320 g/ha, evaluated three weeks after application. An outline of the steps:
as §2
`CON=C(C)c1ccc(-c2sc3ccc(F)cc3c2-c2c(O)c(C)nn(C)c2=O)cc1` [2-079]: the “herbicidal effect on N: redroot pigweed” value is given as 5 (Herbicidal rate of 90% or more (almost completely withered)).

Another test has as its system Japanese bulrush. The test can be described thus: Test Example 1: herbicidal activity, application before weed generation under submerged conditions (Table 16, symbol B). The class given is in vivo, Japanese bulrush (Schoenoplectus juncoides). The settings on record: 320 g/ha applied herbicide. In outline: as §3
On to `CON=C(C)c1ccc(-c2sc3ccc(F)cc3c2-c2c(O)c(C)nn(C)c2=O)cc1` [2-079], for which the “Herbicidal effect on B: Japanese bulrush (grade 0-5)” value was 3 (Herbicidal rate of 40% or more and less than 70%).

In another test the test system is velvetleaf. Briefly: Test Example 5: herbicidal effect by foliage application, plastic box (Table 20, symbol M). The class given is in vivo, velvetleaf (Abutilon theophrasti). To be noted: foliage application, 320 g/ha, evaluated three weeks after application. In outline: as §2
Take `CON=C(C)c1ccc(-c2sc3ccc(F)cc3c2-c2c(O)c(C)nn(C)c2=O)cc1` [2-079]: the “herbicidal effect on M: velvetleaf” value was 5 (Herbicidal rate of 90% or more (almost completely withered)).

Another test has as its system lambsquarters. The test can be described thus: Test Example 4: herbicidal effect by soil treatment (Table 19, symbol O). It counts as in vivo, lambsquarters (Chenopodium album). The settings on record: 320 g/ha. An outline of the steps: (§4)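 Three weeks of greenhouse growth at 25° C. to 30° C. followed a uniform surface spray of water-diluted emulsion at a predetermined herbicide amount. Seeds had been sown beforehand under about 1.5 cm of sterilized diluvial soil. Grading followed criteria set out in an earlier test.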
Consider `CON=C(C)c1ccc(-c2sc3ccc(F)cc3c2-c2c(O)c(C)nn(C)c2=O)cc1` [2-079], for which the “herbicidal effect rating, O: lambsquarters” value was 5 (Herbicidal rate of 90% or more (almost completely withered)).

Another test has as its system Italian ryegrass. Briefly: Test Example 4: herbicidal effect by soil treatment (Table 19, symbol K). The class given is in vivo, Italian ryegrass (Lolium multiflorum). The settings on record: 320 g/ha. In outline: as §4
Regarding `CON=C(C)c1ccc(-c2sc3ccc(F)cc3c2-c2c(O)c(C)nn(C)c2=O)cc1` [2-079], the “herbicidal effect rating, K: Italian ryegrass” value was 4 (Herbicidal rate of 70% or more and less than 90%).

A further test has as its system persian speedwell. Briefly: Test Example 4: herbicidal effect by soil treatment (Table 19, symbol R). The class given is in vivo, Persian speedwell (Veronica persica). The settings on record: 320 g/ha. An outline of the steps: as §4
For the compound `CON=C(C)c1ccc(-c2sc3ccc(F)cc3c2-c2c(O)c(C)nn(C)c2=O)cc1` [2-079], the “herbicidal effect rating, R: persian speedwell” value is given as 5 (Herbicidal rate of 90% or more (almost completely withered)).

The test system of a further test is chickweed. Briefly: Test Example 5: herbicidal effect by foliage application, plastic box (Table 20, symbol P). It counts as in vivo, common chickweed (Stellaria media). The settings on record: foliage application, 320 g/ha, evaluated three weeks after application. In outline: as §2
With `CON=C(C)c1ccc(-c2sc3ccc(F)cc3c2-c2c(O)c(C)nn(C)c2=O)cc1` [2-079], the “herbicidal effect on P: chickweed” value is given as 5 (Herbicidal rate of 90% or more (almost completely withered)).

In a further test the test system is windgrass. Briefly: Test Example 4: herbicidal effect by soil treatment (Table 19, symbol L). It counts as in vivo, windgrass (Apera spica-venti). The settings on record: 320 g/ha. An outline of the steps:
as §4
On to `CON=C(C)c1ccc(-c2sc3ccc(F)cc3c2-c2c(O)c(C)nn(C)c2=O)cc1` [2-079], for which the “herbicidal effect rating, L: windgrass” value is listed as 0 (Herbicidal rate of 5% or less (almost no effect)).

The next test deals with barnyard grass. The test can be described thus: Test Example 3: herbicidal effect by foliage application, Wagner pot (Table 18, symbol H). The settings on record: 320 g/ha. The class given is in vivo, barnyard grass (Echinochloa crus-galli). In outline: as §1
As to `CON=C(C)c1ccc(-c2sc3ccc(F)cc3c2-c2c(O)c(C)nn(C)c2=O)cc1` [2-079], the “herbicidal effect on H (barnyard grass), rating 0-5” value is given as 5 (Herbicidal rate of 90% or more (almost completely withered)).

Another test has as its system late watergrass. Briefly: Test Example 1: herbicidal activity, application before weed generation under submerged conditions (Table 16, symbol A). It counts as in vivo, late watergrass (Echinochloa oryzicola). The settings on record: 320 g/ha applied herbicide. In outline: as §3
For `CON=C(C)c1ccc(-c2sc3ccc(F)cc3c2-c2c(O)c(C)nn(C)c2=O)cc1` [2-079], the “Herbicidal effect on A: late watergrass (grade 0-5)” value is 1 (Herbicidal rate of 5% or more and less than 20%).

The subject of a further test is blackgrass. The test can be described thus: Test Example 5: herbicidal effect by foliage application, plastic box (Table 20, symbol J). It counts as in vivo, blackgrass (Alopecurus myosuroides). To be noted: foliage application, 320 g/ha, evaluated three weeks after application. In outline: as §2
On to `CON=C(C)c1ccc(-c2sc3ccc(F)cc3c2-c2c(O)c(C)nn(C)c2=O)cc1` [2-079], for which the “herbicidal effect on J: blackgrass” value is 3 (Herbicidal rate of 40% or more and less than 70%).

The test system of a further test is windgrass. Briefly: Test Example 5: herbicidal effect by foliage application, plastic box (Table 20, symbol L). The class given is in vivo, windgrass (Apera spica-venti). To be noted: foliage application, 320 g/ha, evaluated three weeks after application. An outline of the steps: as §2
As to `CON=C(C)c1ccc(-c2sc3ccc(F)cc3c2-c2c(O)c(C)nn(C)c2=O)cc1` [2-079], the “herbicidal effect on L: windgrass” value is recorded as 5 (Herbicidal rate of 90% or more (almost completely withered)).

The next test deals with chickweed. The test can be described thus: Test Example 4: herbicidal effect by soil treatment (Table 19, symbol P). The class given is in vivo, common chickweed (Stellaria media). To be noted: 320 g/ha. An outline of the steps:
as §4
For `CON=C(C)c1ccc(-c2sc3ccc(F)cc3c2-c2c(O)c(C)nn(C)c2=O)cc1` [2-079], the “herbicidal effect rating, P: chickweed” value is 2 (Herbicidal rate of 20% or more and less than 40%).

The next test has as its system southern crabgrass. The test can be described thus: Test Example 5: herbicidal effect by foliage application, plastic box (Table 20, symbol F). It counts as in vivo, southern crabgrass (Digitaria ciliaris). The settings on record: foliage application, 320 g/ha, evaluated three weeks after application. An outline of the steps:
as §2
For the compound `CON=C(C)c1ccc(-c2sc3ccc(F)cc3c2-c2c(O)c(C)nn(C)c2=O)cc1` [2-079], the “herbicidal effect on F: southern crabgrass” value was 5 (Herbicidal rate of 90% or more (almost completely withered)).

A further test has as its system wild oat. The test can be described thus: Test Example 5: herbicidal effect by foliage application, plastic box (Table 20, symbol I). The settings on record: foliage application, 320 g/ha, evaluated three weeks after application. The class given is in vivo, wild oat (Avena fatua). In outline: as §2
In the case of `CON=C(C)c1ccc(-c2sc3ccc(F)cc3c2-c2c(O)c(C)nn(C)c2=O)cc1` [2-079], the “herbicidal effect on I: wild oat” value is recorded as 5 (Herbicidal rate of 90% or more (almost completely withered)).
